From ChEMBL document CHEMBL2417463, “Synthesis and identification of new flavonoids targeting liver X receptor β involved pathway as potential facilitators of Aβ clearance with reduced lipid accumulation” (J Med Chem, 2013)
Activity calls are given as the source filed them. No cut-off for these calls is given here.

How the values were obtained:
Mus musculus [1] = assay: (§1) Antialzheimer activity in double transgenic B6C3 mouse overexpressing APP swedish mutant and PSEN1dE9 assessed as reduction of amyloid beta42 plaque number in hippocampus at 10 mg/kg, ip administered 3 times per week measured after 6 weeks by OC staining-based fluorescence microscopic analysis relative to vehicle-treated control; type: functional; set-up: scale not given: the % may be the effect or the level left; conditions: route intraperitoneal
BV-2 [2] = assay: Cytotoxicity against mouse BV2 cells assessed as inhibition of cell viability at 50 uM after 48 hrs by SRB assay relative to vehicle-treated control; type: cell-based; conditions: bv-2, 48 h
BV-2 [3] = assay: Upregulation of NEP mRNA expression in mouse BV2 cells at 0.01 to 1 uM after 18 hrs by real-time qPCR analysis; type: functional, cell-based
HepG2 [4] = assay: Cytotoxicity against human HepG2 cells assessed as inhibition of cell viability at 50 uM after 48 hrs by SRB assay relative to vehicle-treated control; type: cell-based; conditions: hepg2, 48 h, 50 µM
HepG2 [5] = assay: Induction of intracellular triglyceride accumulation in human HepG2 cells at 1 uM after 4 days relative to vehicle-treated control; type: cell-based; conditions: hepg2, 96 h
[6] = biological target: T1, Oxysterols receptor LXR-alpha (Homo sapiens) (UniProt Q13133); assay: Agonist activity at human LXRalpha transfected in HEK293 cells at 1 uM after 24 hrs by luciferase reporter gene assay relative to vehicle-treated control; type: cell-based
T1 sequence (whole entry): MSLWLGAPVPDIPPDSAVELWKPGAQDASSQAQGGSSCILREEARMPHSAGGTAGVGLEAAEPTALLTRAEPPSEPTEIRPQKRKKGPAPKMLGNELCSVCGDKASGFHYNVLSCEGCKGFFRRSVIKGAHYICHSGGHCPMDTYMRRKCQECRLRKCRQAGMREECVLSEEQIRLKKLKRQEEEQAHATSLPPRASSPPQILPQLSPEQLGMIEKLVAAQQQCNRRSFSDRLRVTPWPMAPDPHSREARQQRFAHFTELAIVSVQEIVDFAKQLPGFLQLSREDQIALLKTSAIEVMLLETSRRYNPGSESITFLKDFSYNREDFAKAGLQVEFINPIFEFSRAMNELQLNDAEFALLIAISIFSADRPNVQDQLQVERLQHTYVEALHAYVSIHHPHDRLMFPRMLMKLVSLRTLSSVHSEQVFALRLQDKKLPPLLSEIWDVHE

Mus musculus [7] = assay: Antialzheimer activity in double transgenic B6C3 mouse overexpressing APP swedish mutant and PSEN1dE9 assessed as upregulation of apoE protein expression in brain at 10 mg/kg, ip administered 3 times per week measured after 6 weeks by Western blot analysis relative to vehicle-treated control; type: functional; conditions: route intraperitoneal
[8] = biological target: T2, Oxysterols receptor LXR-beta (Mus musculus) (UniProt Q60644); assay: Agonist activity at LXRbeta in mouse BV2 cells assessed as upregulation of apoE protein expression at 1 uM after 48 hrs by Western blot analysis relative to vehicle-treated control; type: cell-based; conditions: BV-2
T2 sequence (whole entry): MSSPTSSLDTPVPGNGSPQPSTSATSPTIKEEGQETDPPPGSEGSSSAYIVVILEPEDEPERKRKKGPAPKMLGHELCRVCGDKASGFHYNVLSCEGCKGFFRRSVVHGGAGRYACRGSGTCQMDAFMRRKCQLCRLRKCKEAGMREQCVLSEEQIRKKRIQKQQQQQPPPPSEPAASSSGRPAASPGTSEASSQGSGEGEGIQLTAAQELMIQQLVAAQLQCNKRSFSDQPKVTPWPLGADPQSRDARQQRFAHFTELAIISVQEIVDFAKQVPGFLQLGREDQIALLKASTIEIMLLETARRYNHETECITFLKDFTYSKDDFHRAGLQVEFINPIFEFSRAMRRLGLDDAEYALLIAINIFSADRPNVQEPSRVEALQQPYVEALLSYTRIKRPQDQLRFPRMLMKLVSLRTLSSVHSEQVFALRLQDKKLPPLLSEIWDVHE

HepG2 [9] = assay: Induction of cytoplasmic lipid accumulation in human HepG2 cells at 10 uM after 4 days by oil red O staining-based light microscopic analysis; type: cell-based; conditions: hepg2, 96 h
[10] = biological target: T2, Oxysterols receptor LXR-beta (Mus musculus); assay: Agonist activity at LXRbeta in mouse RAW264.7 cells assessed as upregulation of ABCA1 protein expression at 1 uM after 18 to 48 hrs by Western blot analysis; type: cell-based
[11] = biological target: T2, Oxysterols receptor LXR-beta (Mus musculus); assay: Agonist activity at LXRbeta in mouse BV2 cells assessed as upregulation of apoE protein expression at 0.1 uM after 48 hrs by Western blot analysis relative to vehicle-treated control; type: cell-based; conditions: BV-2
[12] = biological target: T2, Oxysterols receptor LXR-beta (Mus musculus); assay: Agonist activity at LXRbeta in mouse RAW264.7 cells assessed as induction of ABCA1 promoter activation at 1 uM after 24 hrs by Dual-Glo luciferase reporter gene assay relative to vehicle-treated control; type: cell-based
Mus musculus [13] = assay: Antialzheimer activity in double transgenic B6C3 mouse overexpressing APP swedish mutant and PSEN1dE9 assessed as upregulation of ABCA1 protein expression in brain at 10 mg/kg, ip administered 3 times per week measured after 6 weeks by Western blot analysis relative to vehicle-treated control; type: functional; conditions: route intraperitoneal
HEK293 = assay: Cytotoxicity against HEK293 cells assessed as inhibition of cell viability at 50 uM after 48 hrs by SRB assay relative to vehicle-treated control; type: cell-based; conditions: human, hek293, 48 h
[14] = biological target: T2, Oxysterols receptor LXR-beta (Mus musculus); assay: Agonist activity at LXRbeta in mouse BV2 cells assessed as degradation of intracellular amyloid beta42 preincubated for 18 hrs followed by soluble amyloid beta42 addition measured after 24 hrs by ELISA; type: cell-based; conditions: BV-2
[15] = biological target: T2, Oxysterols receptor LXR-beta (Mus musculus); assay: Agonist activity at LXRbeta in mouse BV2 cells assessed as degradation of intracellular soluble amyloid beta42 at 0.01 uM preincubated for 18 hrs followed by soluble amyloid beta42 addition measured after 24 hrs by ELISA relative to vehicle-treated control; type: cell-based; conditions: BV-2
Mus musculus [16] = assay: as §1, with “load” for “number”, “cortex” for “hippocampus”; type: functional; set-up: scale not given: the % may be the effect or the level left; conditions: route intraperitoneal

Activity (HepG2 [5]): -0.3%
fold change (FC) [6]: 1.19
fold change (FC) [8]: 1.9
Activity [10]: Active
fold change (FC) [11]: 1.6
fold change (FC) [12]: 2.09
Activity [14]: Dose-dependent effect
Activity [15]: 29%
SMILES: Cc1ccc(/C=C/C(=O)c2ccc(N)cc2O)o1
Activity (Mus musculus [1]): 20%
Activity (BV-2 [2]): Non-toxic
Activity (BV-2 [3]): inactive
Activity (HepG2 [4]): Non-toxic
fold change (FC) (Mus musculus [7]): 1.6
Activity (HepG2 [9]): Toxic
fold change (FC) (Mus musculus [13]): 2.3
Activity (HEK293): Non-toxic
Activity (Mus musculus [16]): 30%
